In patent US10323036B2 (Nimbus Lakshmi, Inc., priority 2016, dated 2019) one finds Kd data, which are given here for 30 compounds.

The structures appear in SMILES notation. Bounds are passed on as bounds.

For orientation: Kd means the free concentration of one partner at which half of the binding sites on the other are occupied at equilibrium, for simple one-to-one binding.

Chain of human TYK2 (JH2domain-pseudokinase) (P29597 556-888): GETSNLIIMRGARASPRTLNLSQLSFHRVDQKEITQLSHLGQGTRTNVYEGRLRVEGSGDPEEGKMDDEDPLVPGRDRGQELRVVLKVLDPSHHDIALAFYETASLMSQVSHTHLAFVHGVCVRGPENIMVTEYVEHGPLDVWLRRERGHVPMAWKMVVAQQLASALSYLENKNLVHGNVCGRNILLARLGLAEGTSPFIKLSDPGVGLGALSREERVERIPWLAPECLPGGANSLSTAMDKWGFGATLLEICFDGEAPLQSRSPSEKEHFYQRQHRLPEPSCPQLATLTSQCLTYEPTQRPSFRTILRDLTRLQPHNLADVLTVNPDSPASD

The assay concerns the target human TYK2 (JH2domain-pseudokinase) (Homo sapiens (Human), UniProt P29597). The assay is described as follows: TYK2 JH2 Domain Binding Assay (KINOMEscan). The note with it: Table 4, JH2 binding assay; read-out: JH2 Kd.
For the compound `COc1c(Cl)cccc1Nc1cc(Nc2ccn(C)n2)nc2[nH]n(C)c(=O)c12` [Compound I-136, 4-((3-chloro-2-methoxyphenyl)amino)-2-methyl-6-((1-methyl-1H-pyrazol 3-yl)amino)-1,2-dihydro-3H-pyrazolo[3,4-b]pyridin-3-one], the Kd lay in the range of 1 to 10 nM.

With `Cn1ccc(Nc2cc(Nc3ccccc3S(C)(=O)=O)c3c(=O)n(C)[nH]c3n2)n1` [Compound I-137, 2-methyl-6-((1-methyl-1H-pyrazol-3-yl)amino)-4-((2-(methylsulfonyl)phenyl)amino)-1,2-dihydro-3H-pyrazolo[3,4-b]pyridin-3-one], the Kd was 0.5 to 1 nM.

`Cc1ccnc(Nc2cc(Nc3ccccc3S(C)(=O)=O)c3c(=O)n(C)[nH]c3n2)c1` [Compound I-138, 2-methyl-6-((4-methylpyridin-2-yl)amino)-4-((2-(methylsulfonyl)phenyl)amino)-1,2-dihydro-3H-pyrazolo[3,4-b]pyridin-3-one]: the Kd is 0.5 to 1 nM.

As to `Cn1[nH]c2nc(Nc3ccc(C#N)cn3)cc(Nc3ccccc3S(C)(=O)=O)c2c1=O` [Compound I-139, 6-((2-methyl-4-((2-(methylsulfonyl)phenyl)amino)-3-oxo-2,3-dihydro-1H-pyrazolo[3,4-b]pyridin-6-yl)amino)nicotinonitrile], the Kd was 0.1 to 0.5 nM.

For `COC1CN(c2cccc(Nc3cc(Nc4ccccc4S(C)(=O)=O)c4c(=O)n(C)[nH]c4n3)n2)C1` [Compound I-140, 6-((6-(3-methoxyazetidin-1-yl)pyridin-2-yl)amino)-2-methyl-4-((2-(methylsulfonyl)phenyl)amino)-1,2-dihydro-3H-pyrazolo[3,4-b]pyridin-3-one], the Kd lay in the range of 1 to 10 nM.

For the compound `COc1c(Nc2cc(NC(=O)C3CC3)nc3[nH]n(C)c(=O)c23)ccc(C(=O)N2CCCC2)c1F` [Compound I-141], the Kd was in the range of 1 to 10 nM.

As for `Cn1[nH]c2nc(Nc3ccccn3)cc(Nc3ccccc3S(C)(=O)=O)c2c1=O` [Compound I-142, 2-methyl-4-((2-(methylsulfonyl)phenyl)amino)-6-(pyridin-2-ylamino)-1,2-dihydro-3H-pyrazolo[3,4-b]pyridin-3-one], the dissociation constant Kd lay in the range of 0.1 to 0.5 nM.

In the case of `Cn1[nH]c2nc(Nc3ccc(C4CC4)cn3)cc(Nc3ccccc3S(C)(=O)=O)c2c1=O` [Compound I-143, 6-((5-cyclopropylpyridin-2-yl)amino)-2-methyl-4-((2-(methylsulfonyl)phenyl)amino)-1,2-dihydro-3H-pyrazolo[3,4-b]pyridin-3-one], the Kd fell in the range of 0.1 to 0.5 nM.

For `COc1c(Cl)cccc1Nc1cc(Nc2ccc(N3CCC3)c(C#N)n2)nc2[nH]n(C)c(=O)c12` [Compound I-144, 3-(azetidin-1-yl)-6-((4-((3-chloro-2-methoxyphenyl)amino)-2-methyl-3-oxo-2,3-dihydro-1H-pyrazolo[3,4-b]pyridin-6-yl)amino)picolinonitrile], the Kd lay within 0.1 to 0.5 nM.

On to `COc1c(Cl)cccc1Nc1cc(Nc2ccc(N3CC[C@H](OC)C3)c(C#N)n2)nc2[nH]n(C)c(=O)c12` [Compound I-145, (S)-6-((4-((3-chloro-2-methoxyphenyl)amino)-2-methyl-3-oxo-2,3-dihydro-1H-pyrazolo[3,4-b]pyridin-6-yl)amino)-3-(3-methoxypyrrolidin-1-yl)picolinonitrile], for which the Kd is 0.1 to 0.5 nM.

Regarding `COc1c(Cl)cccc1Nc1cc(Nc2cnc(C3CC3)c(C#N)n2)nc2[nH]n(C)c(=O)c12` [Compound I-146, 6-((4-((3-chloro-2-methoxyphenyl)amino)-2-methyl-3-oxo-2,3-dihydro-1H-pyrazolo[3,4-b]pyridin-6-yl)amino)-3-cyclopropylpyrazine-2-carbonitrile], the Kd is above 10 nM.

Turning to `CCc1ncc(Nc2cc(Nc3cccc(Cl)c3OC)c3c(=O)n(C)[nH]c3n2)nc1C#N` [Compound I-147, 6-((4-((3-chloro-2-methoxyphenyl)amino)-2-methyl-3-oxo-2,3-dihydro-1H-pyrazolo[3,4-b]pyridin-6-yl)amino)-3-ethylpyrazine-2-carbonitrile], the Kd is above 10 nM.

Turning to `CCc1ncc(Nc2cc(Nc3cccc(F)c3OC)c3c(=O)n(C)[nH]c3n2)nc1C#N` [Compound I-148, 3-ethyl-6-((4-((3-fluoro-2-methoxyphenyl)amino)-2-methyl-3-oxo-2,3-dihydro-1H-pyrazolo[3,4-b]pyridin-6-yl)amino)pyrazine-2-carbonitrile], the Kd is above 10 nM.

`COc1c(Nc2cc(NC(=O)C3CC3)nc3[nH]n(C)c(=O)c23)cccc1-n1nc(C)c(C)n1` [Compound I-149]: the Kd was above 10 nM.

On to `Cn1[nH]c2nc(NC(=O)C3CC3)cc(Nc3ccc(C(=O)N4CCCC4)cc3OC(F)F)c2c1=O` [Compound I-151], for which the Kd was above 10 nM.

On to `CCc1ccc(Nc2cc(NC(=O)C3CC3)nc3[nH]n(C)c(=O)c23)c(S(C)(=O)=O)c1` [Compound I-152, N-(4-((4-ethyl-2-(methylsulfonyl)phenyl)amino)-2-methyl-3-oxo-2,3-dihydro-1H-pyrazolo[3,4-b]pyridin-6-yl)cyclopropanecarboxamide], for which the Kd was in the range of 0.5 to 1 nM.

Consider `COc1c(Cl)cccc1Nc1cc(Nc2cnc(C(C)(C)OC)c(C#N)n2)nc2[nH]n(C)c(=O)c12` [Compound I-155, 6-((4-((3-chloro-2-methoxyphenyl)amino)-2-methyl-3-oxo-2,3-dihydro-1H-pyrazolo[3,4-b]pyridin-6-yl)amino)-3-(2-methoxypropan-2-yl)pyrazine-2-carbonitrile], for which the Kd lay within 0.5 to 1 nM.

For the compound `COc1c(Cl)cccc1Nc1cc(Nc2ccc(C(F)F)c(C#N)n2)nc2[nH]n(C)c(=O)c12` [Compound I-156, 6-((4-((3-chloro-2-methoxyphenyl)amino)-2-methyl-3-oxo-2,3-dihydro-1H-pyrazolo[3,4-b]pyridin-6-yl)amino)-3-(difluoromethyl)picolinonitrile], the Kd was above 10 nM.

Take `Cc1ccc(Nc2cc(Nc3ccc(Cl)cc3S(C)(=O)=O)c3c(=O)n(C)[nH]c3n2)nn1` [Compound I-157, 4-((4-chloro-2-(methylsulfonyl)phenyl)amino)-2-methyl-6-((6-methylpyridazin-3-yl)amino)-1,2-dihydro-3H-pyrazolo[3,4-b]pyridin-3-one]: the Kd is 0.5 to 1 nM.

For the compound `COc1c(Cl)cccc1Nc1cc(Nc2cnc(C(C)C)c(C#N)n2)nc2[nH]n(C)c(=O)c12` [Compound I-158, 6-((4-((3-chloro-2-methoxyphenyl)amino)-2-methyl-3-oxo-2,3-dihydro-1H-pyrazolo[3,4-b]pyridin-6-yl)amino)-3-isopropylpyrazine-2-carbonitrile], the dissociation constant Kd was above 10 nM.

Regarding `Cn1[nH]c2nc(NC(=O)C3CC3)cc(Nc3ccc(C4CCC4)cc3S(C)(=O)=O)c2c1=O` [Compound I-182, N-(4-((4-cyclobutyl-2-(methylsulfonyl)phenyl)amino)-2-methyl-3-oxo-2,3-dihydro-1H-pyrazolo[3,4-b]pyridin-6-yl)cyclopropanecarboxamide], the Kd lay within 0.1 to 0.5 nM.

For `COc1c(F)cccc1Nc1cc(Nc2cnc(C(C)(C)OC)c(C#N)n2)nc2[nH]n(C)c(=O)c12` [Compound I-190, 6-((4-((3-fluoro-2-methoxyphenyl)amino)-2-methyl-3-oxo-2,3-dihydro-1H-pyrazolo[3,4-b]pyridin-6-yl)amino)-3-(2-methoxypropan-2-yl)pyrazine-2-carbonitrile], the Kd lay in the range of 0.5 to 1 nM.

With `COc1c(F)cccc1Nc1cc(Nc2ccc(C(F)F)c(C#N)n2)nc2[nH]n(C)c(=O)c12` [Compound I-191, 3-(difluoromethyl)-6-((4-((3-fluoro-2-methoxyphenyl)amino)-2-methyl-3-oxo-2,3-dihydro-1H-pyrazolo[3,4-b]pyridin-6-yl)amino)picolinonitrile], the Kd is above 10 nM.

On to `Cc1ccc(Nc2cc(Nc3ccc(F)cc3S(C)(=O)=O)c3c(=O)n(C)[nH]c3n2)nn1` [Compound I-198, 4-((4-fluoro-2-(methylsulfonyl)phenyl)amino)-2-methyl-6-((6-methylpyridazin-3-yl)amino)-1,2-dihydro-3H-pyrazolo[3,4-b]pyridin-3-one], for which the Kd lay in the range of 0.1 to 0.5 nM.

With `Cc1cc(Nc2cc(Nc3ccc(Cl)cc3S(C)(=O)=O)c3c(=O)n(C)[nH]c3n2)nc(C)n1` [Compound I-199, 4-((4-chloro-2-(methylsulfonyl)phenyl)amino)-6-((2,6-dimethylpyrimidin-4-yl)amino)-2-methyl-1,2-dihydro-3H-pyrazolo[3,4-b]pyridin-3-one], the Kd lay in the range of 0.1 to 0.5 nM.

Consider `Cn1[nH]c2nc(NC(=O)C3CC3)cc(Nc3ccc(C4CC4)cc3S(C)(=O)=O)c2c1=O` [Compound I-201, N-(4-((4-cyclopropyl-2-(methylsulfonyl)phenyl)amino)-2-methyl-3-oxo-2,3-dihydro-1H-pyrazolo[3,4-b]pyridin-6-yl)cyclopropanecarboxamide], for which the Kd is below 0.1 nM.

Take `Cn1[nH]c2nc(Nc3cccc(C#N)n3)cc(Nc3ccc(Cl)cc3S(C)(=O)=O)c2c1=O` [Compound I-203, 6-((4-((4-chloro-2-(methylsulfonyl)phenyl)amino)-2-methyl-3-oxo-2,3-dihydro-1H-pyrazolo[3,4-b]pyridin-6-yl)amino)picolinonitrile]: the Kd fell in the range of 0.5 to 1 nM.

As to `Cc1cc(Nc2cc(Nc3ccc(C4CC4)cc3S(C)(=O)=O)c3c(=O)n(C)[nH]c3n2)nc(C)n1` [Compound I-206, 4-((4-cyclopropyl-2-(methylsulfonyl)phenyl)amino)-6-((2,6-dimethylpyrimidin-4-yl)amino)-2-methyl-1,2-dihydro-3H-pyrazolo[3,4-b]pyridin-3-one], the Kd was 0.5 to 1 nM.

Take `Cc1ncc(Nc2cc(Nc3ccc(Cl)cc3S(C)(=O)=O)c3c(=O)n(C)[nH]c3n2)nc1C` [Compound I-207, 4-((4-chloro-2-(methylsulfonyl)phenyl)amino)-6-((5,6-dimethylpyrazin-2-yl)amino)-2-methyl-1,2-dihydro-3H-pyrazolo[3,4-b]pyridin-3-one]: the Kd was in the range of 1 to 10 nM.

Take `Cc1ccc(Nc2cc(Nc3ccc(Cl)cc3S(C)(=O)=O)c3c(=O)n(C)[nH]c3n2)nc1C(F)(F)F` [Compound I-208, 4-((4-chloro-2-(methylsulfonyl)phenyl)amino)-2-methyl-6-((5-methyl-6-(trifluoromethyl)pyridin-2-yl)amino)-1,2-dihydro-3H-pyrazolo[3,4-b]pyridin-3-one]: the Kd is 0.5 to 1 nM.
